In US20220024921A1, “1,3,4-OXADIAZOLONE COMPOUND AND PHARMACEUTICAL” (NIPPON SHINYAKU CO., LTD., priority 2018, published 2022):
Counter-ions that a name gives are not always drawn.

Key:
[1] = target: PIM1 transgenic cells (Ba/F3) (Homo sapiens, UniProt P11309); test: Proliferation inhibitory effect on PIM1 transgenic cells; format: cell-based, mouse; details: proliferation inhibition, 72 hours, Cell Counting Kit-8, read-out: PIM1 IC50
In short: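 Mouse Ba/F3 pro-B cells were retrovirally transduced with human PIM1 so that their proliferation depends on PIM1. Cells were treated with compound at 1–10000 nM final for 72 h, then read by CCK-8 (OD450−OD650). Inhibition was set against DMSO (0%) and no-cell blank (100%), and IC50 was obtained by two-parameter logistic regression.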

[2] = target: T1, PIM1 serine/threonine kinase (Homo sapiens, UniProt P11309); test: PIM1 serine/threonine kinase inhibitory effect; format: biochemical; details: PIM1 serine/threonine kinase activity; ATP 40 μM; 30° C., 30 minutes
T1 construct: purchased Carna Bioscience, Inc
T1 sequence (P11309 whole entry): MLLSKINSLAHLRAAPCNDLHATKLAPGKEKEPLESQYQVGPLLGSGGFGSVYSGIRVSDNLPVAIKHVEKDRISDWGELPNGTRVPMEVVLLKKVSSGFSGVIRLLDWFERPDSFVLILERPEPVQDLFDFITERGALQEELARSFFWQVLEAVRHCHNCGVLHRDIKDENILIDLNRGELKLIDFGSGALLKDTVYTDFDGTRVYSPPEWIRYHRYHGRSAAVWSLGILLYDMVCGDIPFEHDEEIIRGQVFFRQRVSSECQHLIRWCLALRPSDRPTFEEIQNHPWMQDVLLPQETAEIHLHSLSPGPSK
In short: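 Recombinant PIM1 (0.15 μg/ml final) with 0.5 μM biotinylated substrate and 40 μM ATP in pH 7.0 HEPES/MgCl2 buffer, 30 min at 30° C. Compound range was 0.01–10000 nM final, n=2. HTRF detection with streptavidin-XL665 and anti-phospho antibody-cryptate, 1 h; IC50 from non-linear regression of the 665/620 ratio.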

Chain of PIM1 transgenic cells (Ba/F3) (P11309 whole entry, stated change not applied): as the sequence (P11309 whole entry) above

| Compound | GI50 [1] | IC50 [2] |
| --- | --- | --- |
| CC(C)Oc1c(Cl)cc(-c2n[nH]c(=O)o2)cc1N[C@@H](C)C1CCNCC1 [Example 103, 5-(3-chloro-5-{[(1S)-1-(piperidin-4-yl)ethyl]amino}-4-[(propan-2-yl)oxy]phenyl)-1,3,4-oxadiazol-2(3H)-one hydrochloride] | 120 nM | 5 nM |
| COc1c(Cl)cc(-c2n[nH]c(=O)o2)cc1N[C@@H](C)C1CCNCC1 [Example 104, 5-(3-chloro-4-methoxy-5-{[(1S)-1-(piperidin-4-yl)ethyl]amino}phenyl)-1,3,4-oxadiazol-2(3H)-one hydrochloride] | 110 nM | 4 nM |
| C[C@H](Nc1cc(Cl)cc(-c2n[nH]c(=O)o2)c1)C1CCNCC1 [Example 105, 5-(3-chloro-5-{[(1S)-1-(piperidin-4-yl)ethyl]amino}phenyl)-1,3,4-oxadiazol-2(3H)-one dihydrochloride] | 550 nM | 12 nM |
| C[C@H](Nc1cc(-c2n[nH]c(=O)o2)cc(S(F)(F)(F)(F)F)c1)C1CCNCC1 [Example 107, 5-[3-(pentafluoro-λ^6-sulfanyl)-5-{[(1S)-1-(piperidin-4-yl)ethyl]amino}phenyl]-1,3,4-oxadiazol-2(3H)-one hydrochloride] | 6500 nM | 25 nM |
| O=c1[nH]nc(-c2ccc(C(F)(F)F)c(NCC3(F)CCNCC3)c2)o1 [Example 108, 5-[3-{[(4-fluoropiperidin-4-yl)methyl]amino}-4-(trifluoromethyl)phenyl]-1,3,4-oxadiazol-2(3H)-one hydrochloride] | 270 nM | 19 nM |
| O=c1[nH]nc(-c2ccc(C(F)(F)F)c(NCC3(F)CCCNC3)c2)o1 (stereo not shown) [Example 109, 5-[3-{[(3-fluoropiperidin-3-yl)methyl]amino}-4-(trifluoromethyl)phenyl]-1,3,4-oxadiazol-2(3H)-one hydrochloride] | 480 nM | 28 nM |
| C[C@H](Nc1cc(-c2n[nH]c(=O)o2)cc(C#N)c1Cl)C1CCNCC1 [Example 110, 2-chloro-5-(5-oxo-4,5-dihydro-1,3,4-oxadiazol-2-yl)-3-{[(1S)-1-(piperidin-4-yl)ethyl]amino}benzonitrile hydrochloride] | 2100 nM | 3.5 nM |
| C[C@@H](Nc1cc(-c2n[nH]c(=O)o2)ccc1C(F)(F)F)[C@H]1CC[C@H](N)CC1 [Example 111, 5-[3-({(1R)-1-[(1r,4R)-4-aminocyclohexyl]ethyl}amino)-4-(trifluoromethyl)phenyl]-1,3,4-oxadiazol-2(3H)-one hydrochloride] | 140 nM | 6.4 nM |
| O=c1[nH]nc(-c2ccc(C(F)(F)F)c(N[C@@H](C(F)F)C3CCNCC3)c2)o1 [Example 113, 5-[3-{[(1R)-2,2-difluoro-1-(piperidin-4-yl)ethyl]amino}-4-(trifluoromethyl)phenyl]-1,3,4-oxadiazol-2(3H)-one hydrochloride] | 81 nM | 3.6 nM |
| C[C@H](Nc1nc(-c2n[nH]c(=O)o2)ccc1C(F)(F)F)C1CCNCC1 [Example 114, 5-[6-{[(1S)-1-(piperidin-4-yl)ethyl]amino}-5-(trifluoromethyl)pyridin-2-yl]-1,3,4-oxadiazol-2(3H)-one hydrochloride hydrochloride] | 300 nM | 8.4 nM |
| CC(Nc1cc(-c2n[nH]c(=O)o2)ccc1C(F)(F)F)C1(C)CCNCC1 (stereo not shown) [Example 115, 5-[3-{[1-(4-methylpiperidin-4-yl)ethyl]amino}-4-(trifluoromethyl)phenyl]-1,3,4-oxadiazol-2(3H)-one] | 100 nM | 12 nM |
| O=c1[nH]nc(-c2cc(NCC3(F)CCNCC3)c3cn[nH]c3c2)o1 [Example 116, 5-(4-{[(4-fluoropiperidin-4-yl)methyl]amino}-1H-indazol-6-yl)-1,3,4-oxadiazol-2(3H)-one hydrochloride] | 4200 nM | 4.3 nM |
| N[C@H]1CC[C@H](CCNc2cc(-c3n[nH]c(=O)o3)ccc2C(F)(F)F)CC1 [Example 117, 5-[3-({2-[(1r,4r)-4-aminocyclohexyl]ethyl}amino)-4-(trifluoromethyl)phenyl]-1,3,4-oxadiazol-2(3H)-one hydrochloride] | 1300 nM | 31 nM |
| CCC1(CNc2cc(-c3n[nH]c(=O)o3)ccc2C(F)(F)F)CCNCC1 [Example 122, 5-[3-{[(4-ethylpiperidin-4-yl)methyl]amino}-4-(trifluoromethyl)phenyl]-1,3,4-oxadiazol-2(3H)-one hydrochloride] | 220 nM | 6.5 nM |
| O=c1[nH]nc(-c2cc(F)c(Cl)c(NCC3(F)CCNCC3)c2)o1 [Example 123, 5-(4-chloro-3-fluoro-5-{[(4-fluoropiperidin-4-yl)methyl]amino}phenyl)-1,3,4-oxadiazol-2(3H)-one hydrochloride] | 340 nM | 8.2 nM |
| O=c1[nH]nc(-c2cc(Br)c3cnn(CC4CCNCC4)c3c2)o1 [Example 124, 5-{4-bromo-1-[(piperidin-4-yl)methyl]-1H-indazol-6-yl}-1,3,4-oxadiazol-2(3H)-one hydrochloride] | 4100 nM | 26 nM |
| O=c1[nH]nc(-c2ccc(C(F)(F)F)c(NC[C@H]3CCNC[C@H]3F)c2)o1 [Example 126, 5-[3-({[(3S,4R)-3-fluoropiperidin-4-yl]methyl}amino)-4-(trifluoromethyl)phenyl]-1,3,4-oxadiazol-2(3H)-one hydrochloride] | 600 nM | 11 nM |
| O=c1[nH]nc(-c2ccc(C(F)(F)F)c(NC[C@@H]3CCNC[C@H]3F)c2)o1 [Example 127, 5-[3-({[(3S,4S)-3-fluoropiperidin-4-yl]methyl}amino)-4-(trifluoromethyl)phenyl]-1,3,4-oxadiazol-2(3H)-one hydrochloride] | 440 nM | 21 nM |
| O=c1[nH]nc(-c2cc(F)c(C(F)(F)F)c(NCC3(F)CCNCC3)c2)o1 [Example 129, 5-[3-fluoro-5-{[(4-fluoropiperidin-4-yl)methyl]amino}-4-(trifluoromethyl)phenyl]-1,3,4-oxadiazol-2(3H)-one hydrochloride] | 360 nM | 8.2 nM |
| CN(C[C@H]1CC[C@H](N)CC1)c1cc(-c2n[nH]c(=O)o2)ccc1C(F)(F)F [Example 130, 5-{3-[{[(1r,4r)-4-aminocyclohexyl]methyl}(methyl)amino]-4-(trifluoromethyl)phenyl}-1,3,4-oxadiazol-2(3H)-one hydrochloride] | 280 nM | 19 nM |
| CN[C@H]1CC[C@H](CNc2cc(-c3n[nH]c(=O)o3)ccc2C(F)(F)F)CC1 [Example 131, 5-[3-({[(1r,4r)-4-(methylamino)cyclohexyl]methyl}amino)-4-(trifluoromethyl)phenyl]-1,3,4-oxadiazol-2(3H)-one hydrochloride] | 71 nM | 3 nM |
| CN[C@H]1CC[C@H](CN(C)c2cc(-c3n[nH]c(=O)o3)ccc2C(F)(F)F)CC1 [Example 132, 5-[3-(methyl{[(1r,4r)-4-(methylamino)cyclohexyl]methyl}amino)-4-(trifluoromethyl)phenyl]-1,3,4-oxadiazol-2(3H)-one hydrochloride] | 440 nM | 17 nM |
| O=c1[nH]nc(-c2ccc(C(F)(F)F)c(NCC3C4CCC3CNC4)c2)o1 (stereo not shown) [Example 133, 5-[3-{[(3-azabicyclo[3.2.1]octan-8-yl)methyl]amino}-4-(trifluoromethyl)phenyl]-1,3,4-oxadiazol-2(3H)-one hydrochloride] | 200 nM | 8 nM |
| O=c1[nH]nc(-c2ccc(C(F)(F)F)c(NC[C@@H]3C[C@H]4CC[C@@H](C3)N4)c2)o1 [Example 135, 5-[3-({[(1R,3s,5S)-8-azabicyclo[3.2.1]octan-3-yl]methyl}amino)-4-(trifluoromethyl)phenyl]-1,3,4-oxadiazol-2(3H)-one hydrochloride] | 3500 nM | 29 nM |
| CC[C@H](Nc1cc(-c2n[nH]c(=O)o2)ccc1C(F)(F)F)C1CCNCC1 [Example 138, 5-[3-{[(1S)-1-(piperidin-4-yl)propyl]amino}-4-(trifluoromethyl)phenyl]-1,3,4-oxadiazol-2(3H)-one hydrochloride] | 73 nM | 4 nM |
| CC[C@H](Nc1cc(-c2n[nH]c(=O)o2)cc(F)c1Cl)C1CCNCC1 [Example 139, 5-(4-chloro-3-fluoro-5-{[(1S)-1-(piperidin-4-yl)propyl]amino}phenyl)-1,3,4-oxadiazol-2(3H)-one hydrochloride] | 80 nM | 2.6 nM |
| O=c1[nH]nc(-c2ccc(C(F)(F)F)c(N[C@@H](C(F)F)C3(F)CCNCC3)c2)o1 [Example 140, 5-[3-{[(1R)-2,2-difluoro-1-(4-fluoropiperidin-4-yl)ethyl]amino}-4-(trifluoromethyl)phenyl]-1,3,4-oxadiazol-2(3H)-one hydrochloride] | 57 nM | 4.1 nM |
| C[C@H]1CNCC[C@H]1CNc1cc(-c2n[nH]c(=O)o2)ccc1C(F)(F)F [Example 141, 5-[3-({[(3R,4R)-3-methylpiperidin-4-yl]methyl}amino)-4-(trifluoromethyl)phenyl]-1,3,4-oxadiazol-2(3H)-one hydrochloride] | 250 nM | 7.1 nM |
| C[C@H](Nc1cc(-c2n[nH]c(=O)o2)ccc1C(F)(F)F)C1CC2(CCNCC2)C1 [Example 142, 5-[3-{[(1S)-1-(7-azaspiro[3.5]nonan-2-yl)ethyl]amino}-4-(trifluoromethyl)phenyl]-1,3,4-oxadiazol-2(3H)-one hydrochloride] | 220 nM | 11 nM |
